# Reference: US12486254B2, “Uracil derivatives for stimulating read-through of premature termination codons” (Southern Research Institute, priority 2022, dated 2025)
# System: G542X#10-HBE5x5
# Test: Read-through of a premature termination codon, G542X#10-HBE5x5 (Table 3)
# Type: cell-based
# Details: with G418
# Description: (§1) The compounds shown in Table 1 were evaluated for their ability to stimulate read-through of a premature termination codon, and their respective activities are shown in Tables 2 and 3 below.
row,SMILES,EC50
1,CC(C)n1c(=O)c(C(=O)CN2CCCC[C@@H]2C(N)=O)c(N)n(Cc2ccc(F)cc2)c1=O [2.13],≥ 30 µM
2,CCn1c(=O)c(C(=O)CN2CCCC[C@@H]2C(N)=O)c(N)n(Cc2ccc(F)cn2)c1=O [2.22],≥ 30 µM
3,CCn1c(=O)c(C(=O)CNC(COC)c2ccccc2)c(N)n(Cc2ccc(F)cc2)c1=O (stereo not shown) [1.180],73.2 µM
4,CCn1c(=O)c(C(=O)CN(CC(=O)NC)C(C)C)c(N)n(Cc2ccccc2)c1=O [1.39],≥ 100 µM
5,CCn1c(=O)c(C(=O)CN(C)C(C)C)c(N)n(Cc2ccccc2)c1=O [1.20],≥ 100 µM
6,CCn1c(=O)c(C(=O)CN2CCCC[C@@H]2C(N)=O)c(N)n(Cc2ccc(OC(C)C)cc2)c1=O [2.14],≥ 30 µM
7,CCn1c(=O)c(C(=O)CN(CC(=O)N(C)C)C(C)C)c(N)n(Cc2ccccc2)c1=O [1.40],≥ 100 µM
8,CCn1c(=O)c(C(=O)CN2CCCC[C@@H]2C(N)=O)c(N)n(Cc2cccc(C)n2)c1=O [2.8],≥ 30 µM
9,NC(=O)C1CCCCN1CC(=O)c1c(N)n(Cc2cccc(Cl)c2)c(=O)n(Cc2cccc(Cl)c2)c1=O (stereo not shown) [1.104],25 µM
10,NC(=O)[C@H]1CCCCN1CC(=O)c1c(N)n(Cc2ccc(F)cc2)c(=O)n(CC2CC2)c1=O [1.218],≥ 100 µM
11,CCN(CC)C(=O)C1CCCN(CC(=O)c2c(N)n(Cc3ccccc3)c(=O)n(CC)c2=O)C1 (stereo not shown) [1.66],≥ 100 µM
12,CCn1c(=O)c(C(=O)CN2CCCC[C@@H]2C(N)=O)c(N)n(Cc2ccc(Cl)c(F)c2)c1=O [2.18],≥ 30 µM
13,CCn1c(=O)c(C(=O)CN2CCCC[C@@H]2C(=O)N2CCC(F)(F)CC2)c(N)n(Cc2ccc(F)cc2)c1=O [1.168],≥ 100 µM
14,CCn1c(=O)c(C(=O)CN2CCCC[C@@H]2C(N)=O)c(N)n(Cc2ccc(C#N)cc2F)c1=O [2.23],≥ 30 µM
15,CCn1c(=O)c(C(=O)CN(CC(N)=O)C(C)C)c(N)n(Cc2ccc(F)cc2)c1=O [1.133],50.5 µM
16,CCn1c(=O)c(C(=O)CN2CCCC[C@@H]2C(N)=O)c(N)n(Cc2ccc(F)c(Cl)c2)c1=O [2.17],≥ 30 µM

row,SMILES,EC50
1,CCn1c(=O)c(C(=O)CN2CCCC[C@@H]2C(N)=O)c(N)n([C@H](C)c2ccccc2)c1=O [1.125],≥ 100 µM
2,CCn1c(=O)c(C(=O)CN2CCCCC2C(N)=O)c(N)n(Cc2ccc(F)cc2)c1=O (stereo not shown) [1.103],≥ 100 µM
3,CC(C)N(CC(=O)c1c(N)n(Cc2ccc(F)cc2)c(=O)n(Cc2ccc(F)cc2)c1=O)CC(=O)N(C)C [1.74],≥ 100 µM
4,CCn1c(=O)c(C(=O)CN2CCN(C)C(=O)C2)c(N)n(Cc2ccc(F)cc2)c1=O [1.216],≥ 100 µM
5,CCn1c(=O)c(C(=O)CN2CCCC[C@@H]2C(=O)N2CCCCC2)c(N)n(Cc2ccc(F)cc2)c1=O [1.129],≥ 100 µM
6,CCn1c(=O)c(C(=O)CN2CCC(O)CC2C(N)=O)c(N)n(Cc2ccc(F)cc2)c1=O (stereo not shown) [1.221],≥ 100 µM
7,CCn1c(=O)c(C(=O)CN2CCCC[C@@H]2C(=O)NCC2CC2)c(N)n(Cc2ccc(F)cc2)c1=O [1.174],≥ 100 µM
8,CCn1c(=O)c(C(=O)CN2CCCCC2c2nc3ccccc3[nH]2)c(N)n(Cc2ccccc2)c1=O (stereo not shown) [1.106],≥ 100 µM
9,CCn1c(=O)c(C(=O)CN2CCCCC2C(=O)N(C)C)c(N)n(Cc2ccccc2)c1=O (stereo not shown) [1.67],≥ 100 µM
10,"CCOC(=O)CN(CC(=O)c1c(N)n(Cc2ccccc2)c(=O)n(CC)c1=O)C(C)C [1.18, ethyl 2-((2-(6-amino-1-benzyl-3-ethyl-2,4-dioxo-1,2,3,4-tetrahydropyrimidin-5-yl)-2-oxoethyl)(isopropyl)amino)acetate]",≥ 100 µM
11,CCn1c(=O)c(C(=O)CN2CCCCC2c2nc3ccccc3n2C)c(N)n(Cc2ccccc2)c1=O (stereo not shown) [1.105],≥ 100 µM
12,CCn1c(=O)c(C(=O)CN2CCOCC2)c(N)n(Cc2ccccc2)c1=O [1.11],≥ 100 µM
13,CCn1c(=O)c(C(=O)CN2CCc3cccc(C(N)=O)c3C2)c(N)n(Cc2ccc(F)cc2)c1=O [1.222],≥ 100 µM
14,CCn1c(=O)c(C(=O)CN2CCCCC2C(=O)N2CCOCC2)c(N)n(Cc2ccccc2)c1=O (stereo not shown) [1.87],≥ 100 µM
15,NC(=O)C1CCCCN1CC(=O)c1c(N)n(Cc2ccc(F)cc2)c(=O)n(CCC(=O)O)c1=O (stereo not shown) [1.228],≥ 100 µM
16,CCn1c(=O)c(C(=O)CN2CCC[C@H]2C(=O)OC)c(N)n(Cc2ccccc2)c1=O [1.23],≥ 100 µM

# System: W134X-CF#14 FRT
# Test: Read-through of a premature termination codon, W134X-CF#14 FRT data, with G418
# Type: cell-based
# Details: in presence of G418
# Description: as §1
row,SMILES,EC50
1,CCn1c(=O)c(C(=O)CN2CCCC2C(=O)N2CCOCC2)c(N)n(Cc2ccccc2)c1=O (stereo not shown) [1.121],61.3 µM
2,CCn1c(=O)c(C(=O)CN2CCC[C@@H]2C(N)=O)c(N)n(Cc2ccccc2)c1=O [1.34],53 µM
3,CCn1c(=O)c(C(=O)CN(CCNC(=O)OC(C)(C)C)C(C)C)c(N)n(Cc2ccccc2)c1=O [1.26],155 µM
4,COc1cccc(Cn2c(N)c(C(=O)CN3CCCCC3C(N)=O)c(=O)n(Cc3cccc(OC)c3)c2=O)c1 (stereo not shown) [1.116],23.9 µM
5,CCN(CC(=O)c1c(N)n(Cc2ccccc2)c(=O)n(CC)c1=O)C(C(N)=O)C(C)C (stereo not shown) [1.77],31.2 µM
6,CCn1c(=O)c(C(=O)CN(CC(=O)OC)C(C)C)c(N)n(Cc2ccc(F)cc2)c1=O [1.213],10.2 µM
7,CCn1c(=O)c(C(=O)CN(CC(N)=O)C(C)C)c(N)n(Cc2ccc(F)cc2C)c1=O [1.153],64.8 µM
8,CCN(CC)C(=O)C1CCCCN1CC(=O)c1c(N)n(Cc2ccccc2)c(=O)n(CC)c1=O (stereo not shown) [1.81],3.92 µM
9,CCn1c(=O)c(C(=O)CN2CCCC[C@@H]2C(N)=O)c(N)n(Cc2ccc(C(F)(F)F)cc2)c1=O [1.178],21.2 µM
10,CCn1c(=O)c(C(=O)CN2CCCC[C@@H]2C(=O)N2CCc3ccccc3C2)c(N)n(Cc2ccccc2)c1=O [1.143],6.48 µM
11,CC(C)Cn1c(=O)c(C(=O)CN2CCCCC2C(N)=O)c(N)n(Cc2ccccc2)c1=O (stereo not shown) [1.75],28 µM
12,CCn1c(=O)c(C(=O)CN2CCCCC2C(N)=O)c(N)n(CC2CCCCC2)c1=O (stereo not shown) [1.84],48.2 µM
13,CCn1c(=O)c(C(=O)CN2CCCC[C@@H]2C(=O)NCC(F)(F)F)c(N)n(Cc2ccc(F)cc2)c1=O [1.197],3.91 µM
14,COc1ccccc1Cn1c(N)c(C(=O)CN2CCCCC2C(N)=O)c(=O)n(Cc2ccccc2OC)c1=O (stereo not shown) [1.110],25 µM
15,CCn1c(=O)c(C(=O)CN2CCCCC2C(N)=O)c(N)n(Cc2ccc(F)c(F)c2)c1=O (stereo not shown) [1.147],52.5 µM
16,CCC(C)C1CCCCN1CC(=O)c1c(N)n(Cc2ccc(F)cc2)c(=O)n(CC)c1=O (stereo not shown) [1.202],5.51 µM
17,NC(=O)C1CCCCN1CC(=O)c1c(N)n(Cc2cccc(F)c2)c(=O)n(Cc2cccc(F)c2)c1=O (stereo not shown) [1.95],21.1 µM
18,CCn1c(=O)c(C(=O)CN2CCCCC2C(=O)N(C(C)C)C(C)C)c(N)n(Cc2ccccc2)c1=O (stereo not shown) [1.88],53.8 µM
19,NC(=O)C1CCCCN1CC(=O)c1c(N)n(Cc2cccs2)c(=O)n(Cc2cccs2)c1=O (stereo not shown) [1.101],12.8 µM
20,CCn1c(=O)c(C(=O)CN2CCCC[C@@H]2C(=O)NCc2ccccc2F)c(N)n(Cc2ccccc2)c1=O [1.142],13.1 µM
21,COc1ccc(Cn2c(N)c(C(=O)CN3CCCCC3C(N)=O)c(=O)n(Cc3ccc(OC)cc3)c2=O)cc1 (stereo not shown) [1.115],31.9 µM
22,CCn1c(=O)c(C(=O)CN2CCCCC2C(N)=O)c(N)n(Cc2cccc(C)c2)c1=O (stereo not shown) [1.119],13.3 µM
23,CCn1c(=O)c(C(=O)CN2CCCC[C@H]2C(N)=O)c(N)n(Cc2ccccc2)c1=O [1.49],59.4 µM
24,CCn1c(=O)c(C(=O)CN(CC(N)=O)C(C)(C)C)c(N)n(Cc2ccccc2)c1=O [1.32],72.3 µM

row,SMILES,EC50
1,CC(C)n1c(=O)c(C(=O)CN2CCCCC2C(N)=O)c(N)n(Cc2ccccc2)c1=O (stereo not shown) [1.44],22.7 µM
2,CCn1c(=O)c(C(=O)CN2CCCC[C@@H]2C(=O)NCc2ccc(F)cc2)c(N)n(Cc2ccc(F)cc2)c1=O [1.189],2.56 µM
3,CCn1c(=O)c(C(=O)CN2CCCCC2C(=O)N2CCCC2)c(N)n(Cc2ccccc2)c1=O (stereo not shown) [1.85],28.1 µM
4,CC[C@H]1CCCCN1CC(=O)c1c(N)n(Cc2ccc(F)cc2)c(=O)n(CC)c1=O [1.199],9.5 µM
5,NC(=O)C1CCCCN1CC(=O)c1c(N)n(Cc2ccccc2F)c(=O)n(Cc2ccccc2F)c1=O (stereo not shown) [1.92],24.2 µM
6,CC(C)N(CC(N)=O)CC(=O)c1c(N)n(Cc2cccs2)c(=O)n(Cc2cccs2)c1=O [1.100],16.5 µM
7,Cc1ccccc1Cn1c(N)c(C(=O)CN2CCCCC2C(N)=O)c(=O)n(Cc2ccccc2C)c1=O (stereo not shown) [1.108],25 µM
8,CC(C)N(CC(N)=O)CC(=O)c1c(N)n(Cc2ccccc2)c(=O)n(C)c1=O [1.21],43.2 µM
9,CCn1c(=O)c(C(=O)CN2CCCCC2C(=O)N2CCc3ccccc3C2)c(N)n(Cc2ccccc2)c1=O (stereo not shown) [1.141],12.9 µM
10,CC1Cc2ccccc2N1CC(=O)c1c(N)n(Cc2ccccc2)c(=O)n(C)c1=O (stereo not shown) [1.61],32.3 µM
11,CCn1c(=O)c(C(=O)CN2CCCCC2)c(N)n(Cc2ccc(F)cc2)c1=O [1.193],47.2 µM
12,CCOc1ccc(C(C)NCC(=O)c2c(N)n(Cc3ccc(F)cc3)c(=O)n(CC)c2=O)cc1OCC (stereo not shown) [1.179],10.1 µM
13,NC(=O)C1CCCCN1CC(=O)c1c(N)n(C2CC2)c(=O)n(Cc2ccccc2)c1=O (stereo not shown) [1.46],≥ 100 µM
14,CCn1c(=O)c(C(=O)CN(C)CC(N)=O)c(N)n(Cc2ccccc2)c1=O [1.41],157 µM
15,CCn1c(=O)c(C(=O)CN2CCCCC2C(=O)NC(C)C)c(N)n(Cc2ccccc2)c1=O (stereo not shown) [1.70],27.9 µM
16,CN(C)C(=O)C1CCCCN1CC(=O)c1c(N)n(Cc2cccs2)c(=O)n(Cc2cccs2)c1=O (stereo not shown) [1.102],6.2 µM
17,CCn1c(=O)c(C(=O)CN2CCCCC2C(N)=O)c(N)n(Cc2ccccc2F)c1=O (stereo not shown) [1.137],5.08 µM
18,CCn1c(=O)c(C(=O)CNC2CCCCC2)c(N)n(Cc2ccccc2)c1=O [1.13],174 µM
19,CCn1c(=O)c(C(=O)CN2CCCCC2C(=O)NCc2ccccc2C)c(N)n(Cc2ccccc2)c1=O (stereo not shown) [1.135],13.5 µM
20,CCn1c(=O)c(C(=O)CN2CCCCC2C(=O)OC)c(N)n(Cc2ccccc2)c1=O (stereo not shown) [1.68],19.7 µM
21,CCn1c(=O)c(C(=O)CN2CCCCC2C(N)=O)c(N)n(Cc2ccc(F)cc2OC)c1=O (stereo not shown) [1.154],68.5 µM
22,CCNC(=O)C1CCCCN1CC(=O)c1c(N)n(Cc2ccccc2)c(=O)n(CC)c1=O (stereo not shown) [1.80],3.89 µM
23,CCn1c(=O)c(C(=O)CN2CCCC2C(=O)N(C)C)c(N)n(Cc2ccccc2)c1=O (stereo not shown) [1.98],43.1 µM
